Results reported in US12214015B2, “Use of c-type natriuretic peptide variants to treat osteoarthritis” (priority 2015, dated 2025).
Bridges are numbered along the chain shown (N, C = ends). Where no end group is shown, it is not given here.

What was measured:
[1] = rat, in vivo
Protocol: (§1) As summarized in Table 6, groups of rats were treated with vehicle, Pro-Gly-CNP-37, or Gly-CNP-37. The dose route was intraarticular (IA) or subcutaneous (SC). The dose scheduling was either intraarticular administration three times per week (M, W, F) for 3 weeks (TIW×3W) or subcutaneous administration once daily for approximately 3 weeks (QD×3W). […] IA injections were given as a fixed dose whereas SC injections were given at a given dose per weight based on the most recently recorded body weight. For all rats, body weights were measured predose. For a 300-gram rat, the weekly IA dose regimen for the low, middle, and high levels was approximately equivalent to 15, 50, and 150 μg/kg/day, respectively.
(§2) The pharmacokinetic (PK) and pharmacodynamic (PD) properties of the CNP variants were evaluated. For the PK/PD analysis, timed blood collections were performed on 3 rats/group/time point as follows: 15, 30, 60, and 120 minutes post dosing for the IA groups and 5, 15, 30, 60, and 120 minutes post dosing for the SC groups. After blood collection, synovial lavage fluid (SLF, ˜50 μL/knee) was collected from each rat's left (normal) and right (operated) knee.
(§3) Individual plasma samples were analyzed for Pro-Gly-SNP-37 levels and mean concentration vs. time profiles were analyzed using a non-compartmental model for extravascular administration in Phoenix WinNonlin software.

[2] = Body weight gain, late stage rat osteoarthritis study (Example 3); format: in vivo
Excerpt: A model of late stage osteoarthritis was used to evaluate the efficacy of Pro-Gly-CNP-37 in pre-developed osteoarthritis (i.e., primary osteoarthritis). As described above in Examples 1 and 2, osteoarthritis was induced in the rear legs of rats by severing the meniscus. However, in contrast to Examples 1 and 2, the lesion pathology was allowed to progress for three weeks before IA or SC treatment with Pro-Gly-CNP-37 thereby simulating pre-existing OA (i.e., primary osteoarthritis). The overall study design is outlined in Table 9. In particular, male Lewis rats underwent a unilateral medial meniscal tear surgery on Study Day 0; administration of control vehicle or Pro-Gly-CNP-37 began on Study Day 21; and animals were euthanized at scheduled time points following the last dose on Study Day 22 (Groups 1-4) or Study Day 40 (Groups 5-11). The primary endpoints evaluated included histopathological examination of chondrocyte death/cartilage degeneration in the knee.

in vivo = conditions: rat
Protocol: as §1, §2, §3

NPR-B = target: T1, NPR-B (Homo sapiens, UniProt P20594); experiment: NPR-B signaling studies; format: biochemical
T1 sequence (P20594 23-1047): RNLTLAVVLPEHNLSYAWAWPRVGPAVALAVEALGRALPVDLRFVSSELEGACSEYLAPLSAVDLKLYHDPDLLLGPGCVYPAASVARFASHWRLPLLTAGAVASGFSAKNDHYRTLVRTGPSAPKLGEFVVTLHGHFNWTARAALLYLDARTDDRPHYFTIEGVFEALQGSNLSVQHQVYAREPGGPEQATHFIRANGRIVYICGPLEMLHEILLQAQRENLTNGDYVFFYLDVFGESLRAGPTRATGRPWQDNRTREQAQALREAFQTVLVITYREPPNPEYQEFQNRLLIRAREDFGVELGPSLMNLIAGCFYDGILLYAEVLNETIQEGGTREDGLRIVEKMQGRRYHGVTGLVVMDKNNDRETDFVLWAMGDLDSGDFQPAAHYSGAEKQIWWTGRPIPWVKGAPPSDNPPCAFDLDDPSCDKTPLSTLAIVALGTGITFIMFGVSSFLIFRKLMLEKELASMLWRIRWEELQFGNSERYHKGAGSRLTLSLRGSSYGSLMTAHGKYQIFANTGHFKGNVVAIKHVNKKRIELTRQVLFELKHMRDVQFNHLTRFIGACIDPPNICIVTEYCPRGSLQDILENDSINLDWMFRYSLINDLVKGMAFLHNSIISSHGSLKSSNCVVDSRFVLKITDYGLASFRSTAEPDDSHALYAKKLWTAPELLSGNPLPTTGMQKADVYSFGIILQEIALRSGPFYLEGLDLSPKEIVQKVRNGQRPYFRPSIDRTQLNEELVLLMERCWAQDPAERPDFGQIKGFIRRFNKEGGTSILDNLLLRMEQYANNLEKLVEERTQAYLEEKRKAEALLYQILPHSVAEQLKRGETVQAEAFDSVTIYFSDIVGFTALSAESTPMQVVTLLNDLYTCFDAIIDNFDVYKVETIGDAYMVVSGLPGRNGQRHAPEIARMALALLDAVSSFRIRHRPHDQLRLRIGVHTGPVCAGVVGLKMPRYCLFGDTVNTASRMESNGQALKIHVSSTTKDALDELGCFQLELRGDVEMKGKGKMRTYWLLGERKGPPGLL
Excerpt: Natural substrates of NEP are small and natriuretic peptides (about 2.2 to about 3.2 kDa) are the largest of the natural substrates. According to X-ray crystallographic analyses, the NEP active-site is buried deep inside a central cavity, effectively restricting the size of substrate molecules to no more than about 3 kDa (Oefner et al., J. Mol. Biol., 296: 341-349 (2000)).
The present disclosure encompasses CNP variants designed for improved NPR-B selectivity based on a homology-based structural model of the NPR-B/CNP complex. Combining the experimental and computational structure data of natriuretic peptides bound to the various receptors with the published functional data, CNP variants were generated that continue to bind to NPR-B, but can potentially have reduced affinity to the NPR-C clearance receptor. […] Accordingly, CNP variants were generated to replace the corresponding Gly8 residue with a larger residue (Ser, Val, Thr, or Asn) to disrupt the CNP binding to NPR-C without affecting its binding to NPR-B. Further, one or more mutations were introduced at the C-terminal end of CNP, encompassing Gly15 to Gly21, which is predicted to interact with receptor-specific residues, based on the detailed structural analyses of the receptor/peptide complexes. […]

With `CC[C@H](C)[C@@H]1NC(=O)[C@H](CCCNC(=N)N)NC(=O)[C@H](CC(=O)O)NC(=O)[C@H](CC(C)C)NC(=O)[C@H](CCCCN)NC(=O)[C@H](CC(C)C)NC(=O)CNC(=O)[C@H](Cc2ccccc2)NC(=O)[C@@H](NC(=O)CNC(=O)[C@H](CCCCN)NC(=O)[C@H](CO)NC(=O)[C@H](CC(C)C)NC(=O)CNC(=O)[C@H](CCCCN)NC(=O)[C@H](CCCCN)NC(=O)[C@H](CC(N)=O)NC(=O)[C@H](C)NC(=O)CNC(=O)[C@H](CCCCN)NC(=O)[C@H](Cc2ccc(O)cc2)NC(=O)[C@H](CCCCN)NC(=O)[C@H](CCCNC(=N)N)NC(=O)[C@H](C)NC(=O)[C@H](CC(N)=O)NC(=O)[C@@H]2CCCN2C(=O)[C@H](Cc2c[nH]cn2)NC(=O)[C@H](CCC(=O)O)NC(=O)[C@H](CCC(N)=O)NC(=O)CNC(=O)[C@@H]2CCCN2)CSSC[C@@H](C(=O)O)NC(=O)CNC(=O)[C@H](CC(C)C)NC(=O)CNC(=O)[C@H](CO)NC(=O)[C@H](CCSC)NC(=O)[C@H](CO)NC(=O)CNC1=O` [Pro-Gly-CNP-37] as the compound, how does the exposure vs dose [1] read?
The exposure vs dose was “generally dose-proportional”.

What about the “appearance in systemic circulation” value ([1]; sc) of the same compound?
The value was “appeared rapidly in systemic circulation”.

What about the CL ([1]; sc, 150 ug/kg) of the same compound?
Its CL is 121 mL/min.

And the body weight gain ([2]; 105 μg IA vs IA vehicle)?
Its body weight gain is “significantly reduced”.

What about the body weight gain ([2]; 150 μg/kg SC vs SC vehicle) of the same compound?
Its body weight gain is “significantly reduced”.

What about the “body weight change (FIG. 27)” value ([2]; treated animals, IA and SC) of the same compound?
The value was “reduced body weight change”.

And the AUC(0-t) (in vivo; 10.5 ug)?
Its AUC(0-t) is 28.6 ng·h/mL.

And the Cmax (in vivo; 10.5 ug)?
Its Cmax is 33.8 ng/mL.

And the Tmax (in vivo; 10.5 ug)?
The Tmax was 15 min.

And the clearance (in vivo; 10.5 ug)?
Its clearance is 5.77 mL/min.

And the half-life (in vivo; 10.5 ug)?
Its half-life is 27 min.

What about the AUC(0-t) (in vivo; 35.5 ug) of the same compound?
Its AUC(0-t) is 99 ng·h/mL.

What about the Cmax (in vivo; 35.5 ug) of the same compound?
Its Cmax is 110 ng/mL.

And the Tmax (in vivo; 35.5 ug)?
The Tmax was 15 min.

What about the clearance (in vivo; 35.5 ug) of the same compound?
The clearance was 5.36 mL/min.

What about the half-life (in vivo; 35.5 ug) of the same compound?
The half-life was 34.9 min.

What about the AUC(0-t) (in vivo; 105 ug) of the same compound?
The AUC(0-t) was 147 ng·h/mL.

And the Cmax (in vivo; 105 ug)?
Its Cmax is 357 ng/mL.

What about the Tmax (in vivo; 105 ug) of the same compound?
Its Tmax is 15 min.

And the clearance (in vivo; 105 ug)?
Its clearance is 9.19 mL/min.

What about the half-life (in vivo; 105 ug) of the same compound?
Its half-life is 38.1 min.

And the AUC(0-t) (in vivo; sc, 150 ug/kg)?
The AUC(0-t) was 16.3 ng·h/mL.

And the Cmax (in vivo; sc, 150 ug/kg)?
The Cmax was 28.4 ng/mL.

What about the Tmax (in vivo; sc, 150 ug/kg) of the same compound?
The Tmax was 15 min.

And the half-life (in vivo; sc, 150 ug/kg)?
Its half-life is 23.8 min.

With “DLRVDTKSRAAWARLLQEHPNARKYKGANKKGLSKGCFGLKLDRIGSMSGLGC (ends and bridges not checked; cysteine pairing not given here) [CNP-53]” as the compound, how does the “binding and activation of NPR-B compared with wtCNP-22” value (NPR-B) read?
Its value is “can still bind and activate NPR-B similarly”.

Which “binding and activation of NPR-B compared with wtCNP-22” value (NPR-B) does the source give for “CFGLKLDRIGSMSGLGC (disulfide 1-17 (inferred)) [CNP-17]” here?
Its value is “can still bind and activate NPR-B similarly”.
